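Each compound was tested at five concentrations against cells in 96-well plates for 48 hours. GI50 = concentration required for 50% inhibition of growth.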 The source made the active and inactive calls. No stated cut-off is given here; in the data, active = GI50 up to about 1.1 µM and inactive = higher.
Tests used:
Experiment in all cases: growth of human tumour cells (NCI), 48 h
[1] = tested on: SK-MEL-5
[2] = tested on: EKVX
[3] = tested on: CAKI-1
[4] = tested on: KM12
[5] = tested on: SK-OV-3
[6] = tested on: MOLT-4
[7] = tested on: SK-MEL-2
[8] = tested on: HT-29
[9] = tested on: M14
[10] = tested on: TK-10
[11] = tested on: HL-60
[12] = tested on: SF-539
[13] = tested on: IGROV-1
[14] = tested on: NCI-H226
[15] = tested on: SF-268
[16] = tested on: UACC-257
[17] = tested on: RXF 393
[18] = tested on: A498

SMILES	GI50 [1]	GI50 [2]	GI50 [3]	GI50 [4]	GI50 [5]	GI50 [6]	GI50 [7]	GI50 [8]	GI50 [9]	GI50 [10]	GI50 [11]	GI50 [12]	GI50 [13]	GI50 [14]	GI50 [15]	GI50 [16]	GI50 [17]	GI50 [18]
COc1ccc(-c2cc(O)c3cc4c(cc3n2)OCO4)c(OC)c1	26.5 µM (inactive)	82.4 µM (inactive)	> 100 µM (inactive)	41.6 µM (inactive)	87.3 µM (inactive)	30.2 µM (inactive)	55.1 µM (inactive)	43 µM (inactive)	33.5 µM (inactive)	> 100 µM (inactive)	20 µM (inactive)	51.3 µM (inactive)	> 100 µM (inactive)	–	–	–	–	–
O=C1CCCCC/C=C2/CC[C@H](Sc3ccccc3)[C@@H]12	> 100 µM (inactive)	38.3 µM (inactive)	–	87.1 µM (inactive)	82.2 µM (inactive)	31.4 µM (inactive)	71.9 µM (inactive)	> 100 µM (inactive)	> 100 µM (inactive)	49.9 µM (inactive)	52.1 µM (inactive)	–	–	> 100 µM (inactive)	88.5 µM (inactive)	> 100 µM (inactive)	37.8 µM (inactive)	–
N/N=C1/C(=O)N(c2ccc(Cl)cc2)C(=O)C(=O)C1c1nc2ccccc2s1 (stereo not given)	> 100 µM (inactive)	> 100 µM (inactive)	> 68.2 µM (inactive)	> 100 µM (inactive)	> 100 µM (inactive)	> 100 µM (inactive)	> 100 µM (inactive)	> 100 µM (inactive)	> 100 µM (inactive)	> 100 µM (inactive)	> 100 µM (inactive)	> 100 µM (inactive)	> 100 µM (inactive)	–	> 100 µM (inactive)	> 100 µM (inactive)	> 100 µM (inactive)	> 100 µM (inactive)
CN/N=C(/CC(=O)c1sc(-n2nc(-c3ccccc3)cc2-c2ccccc2)nc1C)C(=O)Nc1ccc(Cl)c(Cl)c1	18 µM (inactive)	0.787 µM (active)	14.7 µM (inactive)	41.7 µM (inactive)	24.6 µM (inactive)	16.7 µM (inactive)	> 100 µM (inactive)	25.9 µM (inactive)	–	–	–	40.2 µM (inactive)	61 µM (inactive)	17.2 µM (inactive)	35.2 µM (inactive)	30.6 µM (inactive)	26.2 µM (inactive)	16.1 µM (inactive)
COC(=O)C1=C(C)N(NC(N)=O)C(C)(O)C12CCOC2=O (stereo not given)	–	> 100 µM (inactive)	> 100 µM (inactive)	> 100 µM (inactive)	> 100 µM (inactive)	> 100 µM (inactive)	> 100 µM (inactive)	> 100 µM (inactive)	> 100 µM (inactive)	> 100 µM (inactive)	> 100 µM (inactive)	> 100 µM (inactive)	> 100 µM (inactive)	> 100 µM (inactive)	> 100 µM (inactive)	> 100 µM (inactive)	–	> 100 µM (inactive)
COc1ccccc1NC(=O)C1=C(C)NC(C)=C(C(=O)Nc2ccccc2OC)C1c1ccccc1F	41.6 µM (inactive)	50.2 µM (inactive)	> 100 µM (inactive)	66.7 µM (inactive)	> 100 µM (inactive)	49.2 µM (inactive)	55.8 µM (inactive)	91.4 µM (inactive)	> 100 µM (inactive)	> 100 µM (inactive)	46.2 µM (inactive)	30.5 µM (inactive)	> 100 µM (inactive)	> 100 µM (inactive)	> 100 µM (inactive)	> 100 µM (inactive)	–	> 100 µM (inactive)
O=C(CN1CCCCC1)N1CCc2c([nH]c3ccccc23)C1c1cccnc1 (stereo not given)	> 100 µM (inactive)	> 100 µM (inactive)	> 100 µM (inactive)	> 100 µM (inactive)	> 100 µM (inactive)	> 100 µM (inactive)	–	> 100 µM (inactive)	> 100 µM (inactive)	> 100 µM (inactive)	> 100 µM (inactive)	> 100 µM (inactive)	> 100 µM (inactive)	–	> 100 µM (inactive)	> 100 µM (inactive)	40.5 µM (inactive)	> 100 µM (inactive)
Cn1nc(-c2ccccc2)c(C(=O)/C=C/c2ccc(Cl)cc2)c(N2CCCCC2)c1=O	1.95 µM (inactive)	3.85 µM (inactive)	0.826 µM (active)	–	3.52 µM (inactive)	1.53 µM (inactive)	–	1.45 µM (inactive)	3.15 µM (inactive)	3.72 µM (inactive)	1.82 µM (inactive)	1.61 µM (inactive)	2.15 µM (inactive)	–	2 µM (inactive)	–	1.32 µM (inactive)	–
C=CCCCCC1CCC2CCC(CCCCC=C)N12 (stereo not given)	13.9 µM (inactive)	> 10 µM (inactive)	29.1 µM (inactive)	15.8 µM (inactive)	–	15 µM (inactive)	10.7 µM (inactive)	9.38 µM (inactive)	15.4 µM (inactive)	16.6 µM (inactive)	14.5 µM (inactive)	16.9 µM (inactive)	–	18.2 µM (inactive)	14.7 µM (inactive)	15.2 µM (inactive)	–	–
Cc1c(C(=O)/C=C/c2ccccc2Cl)[n+]([O-])c2ccccc2[n+]1[O-]	18 µM (inactive)	17.3 µM (inactive)	3.24 µM (inactive)	14.3 µM (inactive)	20.4 µM (inactive)	16 µM (inactive)	13.6 µM (inactive)	17.3 µM (inactive)	15.2 µM (inactive)	–	12.3 µM (inactive)	15.9 µM (inactive)	15 µM (inactive)	15.3 µM (inactive)	–	13.4 µM (inactive)	–	14 µM (inactive)
CC12CCC(C)(c3cc(O)c(O)cc31)c1cc(O)c(O)cc12	17.7 µM (inactive)	25.1 µM (inactive)	11.2 µM (inactive)	17.1 µM (inactive)	19.2 µM (inactive)	15.1 µM (inactive)	32.6 µM (inactive)	14.7 µM (inactive)	17.2 µM (inactive)	19.8 µM (inactive)	3.38 µM (inactive)	–	20.3 µM (inactive)	–	18.2 µM (inactive)	15.3 µM (inactive)	16.1 µM (inactive)	–
[N-]=[N+]=NC(CI)c1cn([C@H]2C[C@H](O)[C@@H](CO)O2)c(=O)[nH]c1=O (stereo not given in full)	> 100 µM (inactive)	> 100 µM (inactive)	> 100 µM (inactive)	> 100 µM (inactive)	> 100 µM (inactive)	> 100 µM (inactive)	> 100 µM (inactive)	> 100 µM (inactive)	> 100 µM (inactive)	> 100 µM (inactive)	54.1 µM (inactive)	> 100 µM (inactive)	> 100 µM (inactive)	> 100 µM (inactive)	–	–	> 100 µM (inactive)	–
COc1cc2c(c(OC)c1OC)-c1ccc(SC)c(=O)cc1[C@@H](NC(=O)c1ccc(F)cc1)CC2	–	0.0461 µM (active)	–	0.0217 µM (active)	0.0294 µM (active)	0.0601 µM (active)	0.0407 µM (active)	0.0318 µM (active)	0.0378 µM (active)	0.0515 µM (active)	< 0.01 µM (active)	0.0283 µM (active)	0.0594 µM (active)	0.0381 µM (active)	0.0455 µM (active)	< 0.01 µM (active)	–	0.0399 µM (active)
